Reference: the Kinase Knowledgebase extract (Sharma et al. 2016)
In brackets after ≈: the same amount, converted by molar mass.

How the values were obtained:
EGFR (human) [1] = target: EGFR (human) (UniProt P00533); details: sw 620
EGFR (human) [2] = target: EGFR (human) (UniProt P00533); details: mda-mb-435
EGFR (human) [3] = target: EGFR (human) (UniProt P00533); details: sk-br-3
EGFR (human) [4] = target: EGFR (human) (UniProt P00533); details: 3t3
EGFR (human) [5] = target: EGFR (human) (UniProt P00533); details: her2/3t3
EGFR (human) [6] = target: EGFR (human) (UniProt P00533); details: a431

EGFR (human), sequence (P00533 whole entry, looked up): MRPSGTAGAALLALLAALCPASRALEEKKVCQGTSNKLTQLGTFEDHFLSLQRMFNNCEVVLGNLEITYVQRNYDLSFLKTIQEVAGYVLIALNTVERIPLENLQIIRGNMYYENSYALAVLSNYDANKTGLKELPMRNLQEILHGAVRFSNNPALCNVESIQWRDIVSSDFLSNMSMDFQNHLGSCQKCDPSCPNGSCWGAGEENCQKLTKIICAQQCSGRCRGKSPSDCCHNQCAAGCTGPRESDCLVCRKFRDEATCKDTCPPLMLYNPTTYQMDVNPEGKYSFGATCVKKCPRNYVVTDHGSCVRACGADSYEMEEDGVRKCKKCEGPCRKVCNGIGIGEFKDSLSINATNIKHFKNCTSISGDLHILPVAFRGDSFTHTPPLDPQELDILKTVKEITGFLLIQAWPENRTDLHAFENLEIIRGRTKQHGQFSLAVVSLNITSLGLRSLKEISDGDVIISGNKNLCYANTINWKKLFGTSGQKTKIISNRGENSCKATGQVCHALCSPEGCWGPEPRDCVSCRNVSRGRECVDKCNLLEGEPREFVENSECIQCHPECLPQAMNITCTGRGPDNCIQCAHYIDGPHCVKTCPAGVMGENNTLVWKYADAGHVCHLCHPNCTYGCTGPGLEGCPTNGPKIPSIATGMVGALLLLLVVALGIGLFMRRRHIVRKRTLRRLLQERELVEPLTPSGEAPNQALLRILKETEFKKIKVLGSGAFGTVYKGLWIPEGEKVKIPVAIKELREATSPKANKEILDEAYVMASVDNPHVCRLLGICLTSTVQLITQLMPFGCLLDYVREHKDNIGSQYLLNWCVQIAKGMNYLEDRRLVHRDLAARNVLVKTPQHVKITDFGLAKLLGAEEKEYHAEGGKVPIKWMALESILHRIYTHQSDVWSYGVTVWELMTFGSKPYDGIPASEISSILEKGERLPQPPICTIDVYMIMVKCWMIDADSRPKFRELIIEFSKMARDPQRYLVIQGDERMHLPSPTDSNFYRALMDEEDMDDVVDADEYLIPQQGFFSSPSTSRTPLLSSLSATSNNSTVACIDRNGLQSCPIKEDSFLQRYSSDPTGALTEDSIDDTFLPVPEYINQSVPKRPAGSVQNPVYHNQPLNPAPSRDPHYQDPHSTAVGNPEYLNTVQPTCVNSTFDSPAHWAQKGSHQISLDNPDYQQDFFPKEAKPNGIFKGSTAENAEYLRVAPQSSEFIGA

Structure (SMILES)	IC50 (EGFR (human) [1]) [µg/mL]	IC50 (EGFR (human) [2]) [µg/mL]	IC50 (EGFR (human) [3]) [µg/mL]	IC50 (EGFR (human) [4]) [µg/mL]	IC50 (EGFR (human) [5]) [µg/mL]	IC50 (EGFR (human) [6]) [µg/mL]
COC[C@@H]1CCCN1CC#CC(=O)Nc1ccc2ncc(C#N)c(Nc3cccc(Br)c3)c2c1	0.1 (≈ 0.193 µM)	0.3 (≈ 0.579 µM)	–	–	–	–
COCCN(C)C/C=C\C(=O)Nc1cc2c(Nc3ccc(F)c(Cl)c3)c(C#N)cnc2cc1OC	1.53 (≈ 3.07 µM)	2.07 (≈ 4.16 µM)	0.107 (≈ 0.215 µM)	2.04 (≈ 4.1 µM)	0.192 (≈ 0.386 µM)	0.245 (≈ 0.492 µM)
CN1CCC=C(C(=O)Nc2ccc3ncc(C#N)c(Nc4cccc(Br)c4)c3c2)C1	> 5	3.19 (≈ 6.91 µM)	1.5 (≈ 3.23 µM)	–	–	0.369 (≈ 0.798 µM)
COCCN(CC#CC(=O)Nc1ccc2ncc(C#N)c(Nc3cccc(Br)c3)c2c1)CCOC	0.5 (≈ 0.932 µM)	0.2 (≈ 0.373 µM)	–	–	–	0.1 (≈ 0.186 µM)
COCCOCC#CC(=O)Nc1ccc2ncc(C#N)c(Nc3cccc(Br)c3)c2c1	0.4 (≈ 0.834 µM)	3.5 (≈ 7.3 µM)	0.8 (≈ 1.67 µM)	–	–	0.9 (≈ 1.88 µM)
COc1cc2ncc(C#N)c(Nc3ccc(F)c(Cl)c3)c2cc1NC(=O)/C=C/CN1CCC2(CC1)OCCO2	2.51 (≈ 4.55 µM)	3.32 (≈ 6.01 µM)	0.188 (≈ 0.341 µM)	2.79 (≈ 5.05 µM)	0.35 (≈ 0.634 µM)	0.283 (≈ 0.513 µM)
C=CCN(C)CC#CC(=O)Nc1ccc2ncc(C#N)c(Nc3cccc(Br)c3)c2c1	0.1 (≈ 0.211 µM)	0.1 (≈ 0.211 µM)	–	–	–	–
COCCN(C)CC#CC(=O)Nc1ccc2ncc(C#N)c(Nc3cccc(Br)c3)c2c1	0.239 (≈ 0.485 µM)	0.284 (≈ 0.577 µM)	–	–	–	0.05 (≈ 0.102 µM)
COC[C@@H]1CCCN1C/C=C/C(=O)Nc1cc2c(Nc3ccc(F)c(Cl)c3)c(C#N)cnc2cc1OC	1.24 (≈ 2.37 µM)	1.74 (≈ 3.32 µM)	0.148 (≈ 0.282 µM)	2.1 (≈ 4.01 µM)	0.329 (≈ 0.628 µM)	0.234 (≈ 0.447 µM)
COc1cc2ncc(C#N)c(Nc3ccc(F)c(Cl)c3)c2cc1NC(=O)/C=C\CN1CCCC(CO)C1 (stereo not given)	1.73 (≈ 3.3 µM)	1.83 (≈ 3.49 µM)	–	2.87 (≈ 5.48 µM)	0.375 (≈ 0.716 µM)	0.232 (≈ 0.443 µM)
CCOc1c(Nc2ccc3ncc(C#N)c(Nc4cccc(Br)c4)c3c2)c(=O)c1=O	18 (≈ 38.8 µM)	27.6 (≈ 59.6 µM)	1.74 (≈ 3.76 µM)	–	–	4.91 (≈ 10.6 µM)
